Data on two compounds can be found in US7521418B2, “Use of a polyene macrolide antifungal agent in combination with a glycopeptide antibacterial agent” (Theravance, Inc., priority 2003, dated 2009).

Molecules are shown by their SMILES.

For the assay, the system named is R. microsporus ATCC 14050. Briefly: Checkerboard MIC assay, FICI. It counts as cell-based, Rhizopus microsporus. The note with it: combination with Compound 1. The text has this: The following assay was used to determine the minimum inhibitory concentration (MIC) and fractional inhibitory concentration index (FICI) for combinations of an antifungal agent and a glycopeptide antibacterial agent. This assay and methods for calculating FICI are well known in the art. See, for example, Eliopoulos, E. G. and R. Moellering, Jr. “Antimicrobial Combinations” in Antibiotics in Laboratory Medicine, edited by V. Lorian, 4th Ed., Williams & Wilkins, Baltimore, MD, pp. 330-396 (1996); […] et al., Antimicrobial Agents and Chemotherapy 47(4):1416-1418 (2003); or […] et al., Antimicrobial Agents and Chemotherapy 46(10):3323-3326 (2002). […] The MIC of the glycopeptide antibacterial agent determined from this experiment was used in FIC calculations. […]

Consider `C[C@@H]1[C@H](O)[C@@H](C)/C=C/C=C/C=C/C=C/C=C/C=C/C=C/[C@H](O[C@@H]2O[C@H](C)[C@@H](O)[C@H](N)[C@@H]2O)C[C@@H]2O[C@](O)(C[C@@H](O)C[C@@H](O)[C@H](O)CC[C@@H](O)C[C@@H](O)CC(=O)O[C@H]1C)C[C@H](O)[C@H]2C(=O)O` [Amphotericin B], for which the FICI turned out to be 0.27.

Regarding `C[C@@H]1[C@H](O)[C@@H](C)/C=C/C=C/CC/C=C/C=C/C=C/C=C/C(O[C@H]2O[C@H](C)[C@@H](O)[C@H](N)[C@@H]2O)CC2O[C@](O)(CC(O)C(O)CCC(O)CC(O)CC(O)CC(=O)O[C@H]1C)CC(O)C2C(=O)O` (some centres unmarked) [Nystatin], the FICI is listed as 0.51.
